Test results from PubChem BioAssay AID2206 (Vanderbilt High Throughput Screening Facility, 2009).
Calls of active or inactive are those of the source.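 Rule for the calls: active = average EC50 below 10 µM; inactive = average EC50 of 10 µM or more.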

Target: Muscarinic acetylcholine receptor M1 (Rattus norvegicus) (UniProt P08482)
Assay: rat M1 positive allosteric modulators, SAR follow-up, selectivity assay for M5 allosteric modulator project, cell-based (AID 2206)
Conditions: CHO-K1 rat M1, Fluo-4 calcium, ACh EC20 potentiation

Sequence of Muscarinic acetylcholine receptor M1 (Rattus norvegicus) (P08482 whole entry, looked up): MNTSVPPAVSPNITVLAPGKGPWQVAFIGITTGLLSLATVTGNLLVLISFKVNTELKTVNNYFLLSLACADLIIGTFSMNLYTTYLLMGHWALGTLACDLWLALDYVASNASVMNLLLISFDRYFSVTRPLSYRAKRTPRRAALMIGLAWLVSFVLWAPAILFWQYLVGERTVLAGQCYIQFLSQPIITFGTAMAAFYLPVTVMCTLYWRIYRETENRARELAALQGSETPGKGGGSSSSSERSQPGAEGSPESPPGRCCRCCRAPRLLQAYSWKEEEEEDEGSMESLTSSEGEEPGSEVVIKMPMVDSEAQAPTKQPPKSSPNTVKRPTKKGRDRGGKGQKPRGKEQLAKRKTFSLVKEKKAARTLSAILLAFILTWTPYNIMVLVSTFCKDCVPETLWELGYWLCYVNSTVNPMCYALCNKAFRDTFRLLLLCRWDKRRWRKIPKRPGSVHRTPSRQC

Row | SMILES | EC50
1 | COc1ccc(CN2C(=O)C(=O)c3ccccc32)cc1 | inactive
2 | O=C1C(=O)N(Cc2ccc(OC(F)(F)F)cc2)c2ccc(OC(F)(F)F)cc21 | > 30 µM (inactive)
3 | O=C1C(=O)N(Cc2ccc(C(F)(F)F)cc2)c2ccc(Cl)cc21 | 5.41 µM
4 | O=C1C(=O)N(Cc2ccc(C(F)(F)F)cc2)c2ccc(OC(F)(F)F)cc21 | 7.09 µM
5 | O=C1C(=O)N(Cc2ccc(C(F)(F)F)cc2)c2c(F)cccc21 | 5.18 µM
6 | O=C1C(=O)N(Cc2ccc(Br)cc2)c2c(F)cccc21 | 3.99 µM
7 | O=C1C(=O)N(Cc2ccccc2C(F)(F)F)c2c(F)cccc21 | > 30 µM (inactive)
8 | O=C1C(=O)N(Cc2ccccc2C(F)(F)F)c2ccc(F)cc21 | 6.21 µM
9 | COc1ccc(CN2C(=O)C(=O)c3cccc(Cl)c32)cc1 | 5.38 µM
10 | COc1cccc(CN2C(=O)C(=O)c3c(Cl)ccc(Cl)c32)c1 | > 30 µM (inactive)

Further lines, results first:

Row | EC50 | SMILES
11 | > 10 µM (inactive) | O=C1C(=O)N(Cc2ccc(Br)cc2F)c2ccc(OC(F)(F)F)cc21
12 | > 10 µM (inactive) | Cc1ccccc1CN1C(=O)C(=O)c2cc(OC(F)(F)F)ccc21
13 | > 30 µM (inactive) | COc1cccc(CN2C(=O)C(=O)c3cc(OC(F)(F)F)ccc32)c1
14 | > 30 µM (inactive) | COc1ccc(CN2C(=O)C(=O)c3cc(OC(F)(F)F)ccc32)cc1
15 | > 30 µM (inactive) | O=C1C(=O)N(Cc2ccccc2Cl)c2ccc(OC(F)(F)F)cc21
